# What was measured:
# [1] = molecular target: T1, Arabidopsis thaliana BIO3-BIO1 (BioDA) mutants (Arabidopsis thaliana, UniProt B0F481); test: BIO3-BIO1 mutant enzyme activity in the presence of herbicide, percentage inhibition (fluorometric DAPA assay); assay type: biochemical
# T1 construct: with the predicted N-terminal mitochondrial transit peptide removed; 6xHis-tag (N); thrombin cleavage site (N); made in house; host or cells: E. coli BL21 (DE3) bioA
# In short: (§1)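 Percentage inhibition compares activity at one of three herbicide concentrations against DMSO, from o-phthalaldehyde-derivatised DAPA fluorescence (ex 410, em 470 nm). Purified N-His BIO3-BIO1 variants (50 nM, E. coli-expressed) saw herbicide 10 min at 20 °C in pH 8.6 EPPS buffer, then 20 μM KAPA plus 100 μM spermidine for 75 min at 20 °C.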
# [2] = system: Arabidopsis thaliana BIO3-BIO1 (BioDA) mutants; test: as above; assay type: biochemical
# In short: as §1
# [3] = read-out: percentage inhibition
# T1 sequence (B0F481 23-833, change not shown): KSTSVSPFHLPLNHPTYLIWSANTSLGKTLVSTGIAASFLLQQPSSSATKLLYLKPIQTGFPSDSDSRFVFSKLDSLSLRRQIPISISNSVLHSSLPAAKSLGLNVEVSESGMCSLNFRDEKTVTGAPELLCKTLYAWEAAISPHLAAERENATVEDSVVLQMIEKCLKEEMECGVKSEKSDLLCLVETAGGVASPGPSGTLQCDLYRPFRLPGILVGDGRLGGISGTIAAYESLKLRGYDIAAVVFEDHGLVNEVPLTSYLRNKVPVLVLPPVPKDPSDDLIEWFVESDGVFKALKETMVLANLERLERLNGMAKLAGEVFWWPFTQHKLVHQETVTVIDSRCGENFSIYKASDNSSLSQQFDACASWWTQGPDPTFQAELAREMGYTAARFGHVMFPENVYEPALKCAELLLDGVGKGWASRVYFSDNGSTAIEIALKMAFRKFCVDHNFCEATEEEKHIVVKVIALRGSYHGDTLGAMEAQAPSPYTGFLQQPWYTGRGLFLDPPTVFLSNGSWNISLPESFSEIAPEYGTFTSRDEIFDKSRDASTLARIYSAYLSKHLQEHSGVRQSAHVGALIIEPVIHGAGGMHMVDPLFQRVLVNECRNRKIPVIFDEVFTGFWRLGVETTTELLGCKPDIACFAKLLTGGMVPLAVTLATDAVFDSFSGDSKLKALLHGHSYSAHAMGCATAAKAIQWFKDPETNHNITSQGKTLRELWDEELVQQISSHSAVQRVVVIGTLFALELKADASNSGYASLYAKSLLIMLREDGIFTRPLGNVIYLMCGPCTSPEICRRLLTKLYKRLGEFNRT
smiles,measurement,setting,value
"CCn1c(Cn2ccc(C(F)(F)F)n2)cc(=O)c(C(=O)O)c1-c1ccc(Cl)c(Cl)c1 [Compound L, 2-(3,4-dichlorophenyl)-1-ethyl-4-oxo-6-[[3-(trifluoromethyl)pyrazol-1-yl]methyl]pyridine-3-carboxylic acid]",inhibition at 0.01 µM,[1]; [3],6%
same,inhibition at 0.075 µM,[1]; [3],44%
same,inhibition at 0.5 µM,[1]; [3],83%
same,percentage inhibition,"[2]; variant Q517F, 0.01 μM",0%
same,percentage inhibition,"[2]; variant Q517F, 0.075 μM",17%
same,percentage inhibition,"[2]; variant Q517F, 0.5 μM",54%
same,percentage inhibition,"[2]; variant Q517H, 0.01 μM",0%
same,percentage inhibition,"[2]; variant T393V, 0.01 μM",9%
same,percentage inhibition,"[2]; variant T393V, 0.075 μM",19%
same,percentage inhibition,"[2]; variant T393V, 0.5 μM",65%
same,percentage inhibition,"[2]; variant T512C, 0.01 μM",0%
same,percentage inhibition,"[2]; variant T512C, 0.075 μM",18%
same,percentage inhibition,"[2]; variant T512C, 0.5 μM",69%
same,percentage inhibition,"[2]; variant T512D, 0.01 μM",24%
same,percentage inhibition,"[2]; variant T512D, 0.075 μM",23%
same,percentage inhibition,"[2]; variant T512D, 0.5 μM",58%
same,percentage inhibition,"[2]; variant T512G, 0.01 μM",0%
same,percentage inhibition,"[2]; variant T512G, 0.075 μM",0%
same,percentage inhibition,"[2]; variant T512G, 0.5 μM",20%
same,percentage inhibition,"[2]; variant T512I, 0.01 μM",2%
same,percentage inhibition,"[2]; variant T512I, 0.075 μM",15%
same,percentage inhibition,"[2]; variant T512I, 0.5 μM",29%
same,percentage inhibition,"[2]; variant T512N, 0.01 μM",15%
same,percentage inhibition,"[2]; variant T512N, 0.075 μM",37%
same,percentage inhibition,"[2]; variant T512N, 0.5 μM",76%
same,percentage inhibition,"[2]; variant T512Q, 0.01 μM",3%
same,percentage inhibition,"[2]; variant T512Q, 0.075 μM",35%
same,percentage inhibition,"[2]; variant T512Q, 0.5 μM",74%
same,percentage inhibition,"[2]; variant T512R, 0.01 μM",27%
same,percentage inhibition,"[2]; variant T512R, 0.075 μM",61%
same,percentage inhibition,"[2]; variant T512R, 0.5 μM",91%
same,percentage inhibition,"[2]; variant T512V, 0.01 μM",33%
same,percentage inhibition,"[2]; variant T512V, 0.075 μM",57%
same,percentage inhibition,"[2]; variant T512V, 0.5 μM",83%
same,percentage inhibition,"[2]; variant T512W, 0.01 μM",18%
same,percentage inhibition,"[2]; variant T512W, 0.075 μM",0%
same,percentage inhibition,"[2]; variant T512W, 0.5 μM",31%
same,percentage inhibition,"[2]; variant V354A, 0.01 μM",6%
same,percentage inhibition,"[2]; variant V354A, 0.075 μM",0%
same,percentage inhibition,"[2]; variant V354A, 0.5 μM",47%
same,percentage inhibition,"[2]; variant V354E, 0.01 μM",4%
same,percentage inhibition,"[2]; variant V354E, 0.075 μM",19%
same,percentage inhibition,"[2]; variant V354E, 0.5 μM",35%
same,percentage inhibition,"[2]; variant V354L, 0.01 μM",0%
same,percentage inhibition,"[2]; variant V354L, 0.075 μM",16%
same,percentage inhibition,"[2]; variant V354L, 0.5 μM",63%
same,percentage inhibition,"[2]; variant V354T, 0.01 μM",0%
same,percentage inhibition,"[2]; variant V354T, 0.075 μM",7%
same,percentage inhibition,"[2]; variant V354T, 0.5 μM",89%
same,percentage inhibition,"[2]; variant W391L, 0.01 μM",24%
same,percentage inhibition,"[2]; variant W391L, 0.075 μM",10%
same,percentage inhibition,"[2]; variant W391L, 0.5 μM",16%
same,percentage inhibition,"[2]; variant W391M, 0.01 μM",0%
same,percentage inhibition,"[2]; variant W391M, 0.075 μM",16%
same,percentage inhibition,"[2]; variant W391M, 0.5 μM",30%
same,percentage inhibition,"[2]; variant W392C, 0.01 μM",2%
same,percentage inhibition,"[2]; variant W392C, 0.075 μM",12%
same,percentage inhibition,"[2]; variant W392C, 0.5 μM",13%
same,percentage inhibition,"[2]; variant W392D, 0.01 μM",19%
same,percentage inhibition,"[2]; variant W392D, 0.075 μM",59%
same,percentage inhibition,"[2]; variant W392D, 0.5 μM",85%
same,percentage inhibition,"[2]; variant W392G, 0.01 μM",0%
same,percentage inhibition,"[2]; variant W392G, 0.075 μM",2%
same,percentage inhibition,"[2]; variant W392G, 0.5 μM",0%
same,percentage inhibition,"[2]; variant W392M, 0.01 μM",0%
same,percentage inhibition,"[2]; variant W392M, 0.075 μM",10%
same,percentage inhibition,"[2]; variant W392M, 0.5 μM",8%
same,percentage inhibition,"[2]; variant W392S, 0.01 μM",0%
same,percentage inhibition,"[2]; variant W392S, 0.075 μM",3%
same,percentage inhibition,"[2]; variant W392S, 0.5 μM",0%
same,percentage inhibition,"[2]; variant Y511C, 0.01 μM",0%
same,percentage inhibition,"[2]; variant Y511C, 0.075 μM",3%
same,percentage inhibition,"[2]; variant Y511C, 0.5 μM",44%
same,percentage inhibition,"[2]; variant Y511D, 0.01 μM",20%
same,percentage inhibition,"[2]; variant Y511D, 0.075 μM",29%
same,percentage inhibition,"[2]; variant Y511D, 0.5 μM",51%
same,percentage inhibition,"[2]; variant Y511E, 0.01 μM",0%
same,percentage inhibition,"[2]; variant Y511E, 0.075 μM",0%
same,percentage inhibition,"[2]; variant Y511E, 0.5 μM",33%
same,percentage inhibition,"[2]; variant Y511F, 0.01 μM",48%
same,percentage inhibition,"[2]; variant Y511F, 0.075 μM",65%
same,percentage inhibition,"[2]; variant Y511F, 0.5 μM",86%
same,percentage inhibition,"[2]; variant Y511I, 0.01 μM",21%
same,percentage inhibition,"[2]; variant Y511I, 0.075 μM",27%
same,percentage inhibition,"[2]; variant Y511I, 0.5 μM",28%
same,percentage inhibition,"[2]; variant Y511M, 0.01 μM",0%
same,percentage inhibition,"[2]; variant Y511M, 0.075 μM",27%
same,percentage inhibition,"[2]; variant Y511M, 0.5 μM",76%
same,percentage inhibition,"[2]; variant Y511P, 0.01 μM",10%
same,percentage inhibition,"[2]; variant Y511P, 0.075 μM",26%
same,percentage inhibition,"[2]; variant Y511P, 0.5 μM",63%
same,percentage inhibition,"[2]; variant Y511Q, 0.01 μM",0%
same,percentage inhibition,"[2]; variant Y511Q, 0.075 μM",6%
same,percentage inhibition,"[2]; variant Y511Q, 0.5 μM",28%
same,percentage inhibition,"[2]; variant Y511R, 0.01 μM",15%
same,percentage inhibition,"[2]; variant Y511R, 0.075 μM",7%
same,percentage inhibition,"[2]; variant Y511R, 0.5 μM",34%
same,percentage inhibition,"[2]; variant Y511V, 0.01 μM",0%
same,percentage inhibition,"[2]; variant Y511V, 0.075 μM",5%
same,percentage inhibition,"[2]; variant Y511V, 0.5 μM",49%
same,percentage inhibition,"[2]; variant Y511W, 0.01 μM",11%
same,percentage inhibition,"[2]; variant Y511W, 0.075 μM",22%
same,percentage inhibition,"[2]; variant Y511W, 0.5 μM",50%
"CCOC(=O)c1nn(-c2ccc3c(c2)OC(F)(F)C(F)(F)O3)c2cccc(C(C)=O)c2c1=O [Compound A, ethyl 5-acetyl-4-oxo-1-(2,2,3,3-tetrafluoro-1,4-benzodioxin-6-yl)cinnoline-3-carboxylate]",percentage inhibition,"[2]; variant Q517M, 1 μM",38%
same,percentage inhibition,"[2]; variant W392A, 1 μM",53%
"CCn1c(-c2ccc(Cl)c(Cl)c2)c(C(=O)O)c(=O)c2cc(F)ccc21 [Compound M, 2-(3,4-dichlorophenyl)-1-ethyl-6-fluoro-4-oxo-quinoline-3-carboxylic acid]",percentage inhibition,"[1]; WT (SEQ ID NO 294), 0.1 μM herbicide",23%
same,inhibition at 0.2 µM,[1]; [3],23%
